Values quoted from earlier work, collected in patent US20210353574A1, “Softgels with solid or gel-like polymeric fill matrix” (Bayer HealthCare LLC, priority 2018, published 2021).

Details: used as an analgesic

SMILES | minimum effective dose
COc1ccc2cc([C@H](C)C(=O)O)ccc2c1 [Naproxen] | 200 mg
COc1ccc2cc([C@H](C)C(=O)O)ccc2c1 [naproxen sodium] | 220 mg
